Assay results reported in US6949561B1, “Steroid 3-O-sulphamate derivatives as inhibitors of oestrone sulphatase” (Sterix Limited, priority 1997, dated 2005).

What was measured:
[1] = cited from earlier work
[2] = molecular target: T1, Rat Liver Sulphatase (E1-STS) (Rattus norvegicus, UniProt P15589); experiment: In vivo inhibition (rat liver sulphatase); conditions: 2 mg/Kg/day × 5 days, oral dose
T1 construct: from tissue; host or cells: rat liver after oral dosing
T1 sequence (P15589 20-577): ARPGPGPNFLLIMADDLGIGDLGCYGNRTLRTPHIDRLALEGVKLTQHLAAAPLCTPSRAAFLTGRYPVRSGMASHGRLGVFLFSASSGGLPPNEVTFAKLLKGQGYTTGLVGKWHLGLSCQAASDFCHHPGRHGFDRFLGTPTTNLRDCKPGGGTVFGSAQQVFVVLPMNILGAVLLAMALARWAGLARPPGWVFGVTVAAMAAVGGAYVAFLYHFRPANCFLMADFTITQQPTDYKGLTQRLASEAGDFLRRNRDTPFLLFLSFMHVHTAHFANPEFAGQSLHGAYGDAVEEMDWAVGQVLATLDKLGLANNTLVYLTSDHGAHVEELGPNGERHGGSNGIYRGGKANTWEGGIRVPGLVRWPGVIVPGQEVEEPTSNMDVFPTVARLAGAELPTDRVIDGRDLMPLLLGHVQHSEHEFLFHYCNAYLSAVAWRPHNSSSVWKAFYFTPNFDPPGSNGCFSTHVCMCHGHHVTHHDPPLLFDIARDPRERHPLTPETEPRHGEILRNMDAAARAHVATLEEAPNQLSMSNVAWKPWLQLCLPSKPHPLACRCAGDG

[3] = molecular target: T2, Steroid sulphatase (Steryl Sulphatase EC 3.1.6.2; E1-STS) in intact MCF-7 human breast cancer cells (Homo sapiens, UniProt P08842); conditions: 0.1 μM; known from prior art; cited from earlier work
T2 construct: endogenous in cells; host or cells: MCF-7 human breast cancer cells
T2 sequence (P08842 22-583): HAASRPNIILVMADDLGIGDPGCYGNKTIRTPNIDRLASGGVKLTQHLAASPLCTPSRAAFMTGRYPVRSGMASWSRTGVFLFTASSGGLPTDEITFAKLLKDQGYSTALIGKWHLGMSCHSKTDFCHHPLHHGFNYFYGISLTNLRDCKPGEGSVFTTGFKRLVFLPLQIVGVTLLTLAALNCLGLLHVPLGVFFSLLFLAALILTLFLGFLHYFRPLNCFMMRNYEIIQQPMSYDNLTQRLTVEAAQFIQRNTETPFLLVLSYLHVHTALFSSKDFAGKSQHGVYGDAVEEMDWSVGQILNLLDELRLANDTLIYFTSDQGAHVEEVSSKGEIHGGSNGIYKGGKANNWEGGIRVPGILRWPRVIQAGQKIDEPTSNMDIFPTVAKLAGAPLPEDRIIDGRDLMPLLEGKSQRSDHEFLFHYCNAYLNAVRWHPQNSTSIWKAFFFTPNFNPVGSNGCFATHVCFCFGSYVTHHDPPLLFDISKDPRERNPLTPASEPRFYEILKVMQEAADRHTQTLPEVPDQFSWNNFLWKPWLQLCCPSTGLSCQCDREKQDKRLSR

[4] = molecular target: T1, Rat Liver Sulphatase (E1-STS); conditions: administered either orally or subcutaneously; prior art; cited from earlier work
[5] = molecular target: T3, dehydroepiandrosterone sulphatase (DHA-STS) (Rattus norvegicus, UniProt P15589); conditions: administered either orally or subcutaneously; prior art; cited from earlier work
T3 construct: host or cells: rat liver (in vivo dosing)
T3 sequence (P15589 20-577): T1 sequence (P15589 20-577)

memory = conditions: rats; prior art; cited from earlier work
E1-STS enzyme = molecular target: T4, E1-STS enzyme (Homo sapiens, UniProt P08842); conditions: prior art; cited from earlier work
T4 sequence (P08842 22-583): T2 sequence (P08842 22-583)

C[C@]12CC[C@@H]3c4ccc(OS(=O)(=O)O)cc4CC[C@H]3[C@@H]1CCC2=O [Compound E1S, oestrone sulphate]
half-life in blood [1]: 10 to 12 h

CC12CCC3c4ccc(OS(N)(=O)=O)cc4CCC3C1CCC2=O (stereo not drawn) [EMATE, oestrone-3-sulphamate]
In Vivo Inhibition (Rat Liver Sulphatase) [2]: 99.1±0.2%
inhibition of E1-STS activity in intact MCF-7 cells [3]: more than 99%
inhibition of rat liver E1-STS activity [4]: 99%
inhibition of rat liver DHA-STS activity [5]: 99%
memory enhancing effect (memory): memory enhancing effect
mode of E1-STS inhibition (E1-STS enzyme): time- and concentration-dependent manner

oestrone-3-N-sulphamate
mode of E1-STS inhibition (E1-STS enzyme): weaker non-time-dependent inactivators

oestrone-3-S-sulphamate
mode of E1-STS inhibition (E1-STS enzyme): weaker non-time-dependent inactivators
